Assay results reported in patent US20230331779A1, “BISPECIFIC FUSION POLYPEPTIDE COMPOUND” (SHAANXI MICOT TECHNOLOGY CO., LTD., priority 2020, published 2023).
Where two headings read alike, the source gives them in different places.

Experiments:
[1] = Plasma PTH in 5/6 nephrectomy rats (secondary hyperparathyroidism model); type: in vivo, rat; details: 3.0 mg/kg s.c. three times a week
Method: Male SD rats were divided into a sham operation group and a 5/6 nephrectomy group (5/6Nx). Rats in the nephrectomy group underwent 5/6 nephrectomy, and were fed with high-phosphorus diet for two weeks after the operation to accelerate the induction of the secondary hyperparathyroidism rat model. After being fed with high-phosphorus diet for 3 weeks, the model rats were randomly divided into 6 groups, a 5/6Nx group (Vehicle), a positive control drug etelcalcetide group (3.0 mg/kg) and 4 groups of the compound of Example 1 (0.5, 1.0, 2.0, 4.0 mg/kg). The rats were administered subcutaneously three times a week for 6 consecutive weeks. Before the first administration, after the first administration, and 4 hours after administration in the 2nd, 4th, and 6th week, blood samples were collected from rats, and the plasma and serum were separated for the detection of the content of PTH in the plasma at each time point.

[2] = Cortical bone porosity in adenine-gavage SHPT rats (Micro CT of femur); type: in vivo, rat; details: 3.0 mg/kg s.c. three times a week for six weeks, Mean ± SEM
Method: According to the Yokozawz method, SD rats were given adenine gavage to establish an animal model of chronic renal failure, and fed with a high-phosphorus diet to induce a model of secondary hyperparathyroidism. Rats were fed until the end of the experiment, and model rats were screened according to the content of PTH in plasma. According to the PTH content and body weight, the model rats were randomly divided into 5 groups: a normal saline group, an etelcalcetide (3.0 mg/kg, dissolved in normal saline) group, 3 groups of Example 1 (1.0 mg/kg, 2.0 mg/kg and 4.0 mg/kg, dissolved in normal saline), and subcutaneously administered three times a week for six consecutive weeks at 1.0 ml/kg per rat. Six weeks later, the left femur of the rat was taken, the muscle and connective tissue were removed, and the femur was placed in a 4% formalin solution. Micro CT scanning was performed 24 hours later, and data was subjected analysis.

[3] = target: T1, calcium-sensing receptor (CASR) (Homo sapiens, UniProt P41180); assay: CaSR activation, HTRF IP-1 competition method in HEK293-CaSR cells; type: cell-based
T1 construct: expressed in transfected cells; host or cells: HEK293-CaSR cells
T1 sequence (P41180 20-1078): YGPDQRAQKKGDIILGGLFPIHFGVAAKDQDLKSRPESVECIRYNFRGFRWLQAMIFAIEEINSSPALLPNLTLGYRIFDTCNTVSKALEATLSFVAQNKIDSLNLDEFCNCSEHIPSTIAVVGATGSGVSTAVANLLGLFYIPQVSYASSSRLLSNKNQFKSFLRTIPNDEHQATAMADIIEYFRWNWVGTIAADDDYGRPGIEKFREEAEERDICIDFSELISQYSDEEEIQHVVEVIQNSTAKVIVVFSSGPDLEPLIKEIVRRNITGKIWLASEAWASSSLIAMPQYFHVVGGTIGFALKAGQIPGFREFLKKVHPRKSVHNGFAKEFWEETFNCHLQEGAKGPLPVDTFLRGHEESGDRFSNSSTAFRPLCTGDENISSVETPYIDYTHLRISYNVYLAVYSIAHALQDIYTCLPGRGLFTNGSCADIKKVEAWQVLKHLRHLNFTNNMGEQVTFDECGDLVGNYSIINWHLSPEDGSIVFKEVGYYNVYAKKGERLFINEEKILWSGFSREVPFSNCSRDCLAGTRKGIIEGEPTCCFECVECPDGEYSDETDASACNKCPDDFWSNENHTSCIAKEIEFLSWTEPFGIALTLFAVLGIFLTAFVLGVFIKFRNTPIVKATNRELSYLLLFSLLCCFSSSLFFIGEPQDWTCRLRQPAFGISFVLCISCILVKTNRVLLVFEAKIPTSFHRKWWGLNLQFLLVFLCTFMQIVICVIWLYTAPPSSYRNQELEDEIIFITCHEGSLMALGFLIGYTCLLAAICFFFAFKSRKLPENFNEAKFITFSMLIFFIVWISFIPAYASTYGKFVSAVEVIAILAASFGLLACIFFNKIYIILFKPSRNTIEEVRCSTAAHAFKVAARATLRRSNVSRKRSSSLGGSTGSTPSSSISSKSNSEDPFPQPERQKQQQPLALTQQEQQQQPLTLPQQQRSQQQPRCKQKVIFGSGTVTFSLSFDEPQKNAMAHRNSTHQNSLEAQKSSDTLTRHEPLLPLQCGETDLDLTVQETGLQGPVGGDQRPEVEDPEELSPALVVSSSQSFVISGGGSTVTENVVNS
Text: In the CaSR activation experiment, the Homogeneous Time-Resolved Fluorescence (HTRF) IP-1 (myolnositol 1 phosphate) competition method was used to detect the effect of the polypeptide of Example 1 on CaSR.

[4] = Effect of single intravenous injection on blood calcium in normal rats; type: in vivo, rat; details: for blood calcium level after a single intravenous bolus injection: normal SD rats
Method: (§1) Test method: SPF grade SD rats, weighing 250-280 g, were randomly divided into 7 groups, 6 administration groups and 1 blank control group (Vehicle=normal saline). The test samples were prepared into a solution with normal saline for administration. The test compound was administered by a single tail vein injection (1 mL/kg) at a dose of 0.5 mg/kg, 1.5 mg/kg and 4.5 mg/kg, respectively. Serum calcium (mmol/L) and phosphorus levels (mmol/L) were measured at 0 hour and at 4, 8 and 16 hours after administration.
(§2) Data processing: The concentrations of PTH, calcium and phosphorus in each group and at each time point were statistically analyzed using the graphpad 6.0 software.

[5] = Effect of single intravenous injection on blood phosphorus in normal rats; type: in vivo, rat; details: for blood phosphorus level after a single intravenous bolus injection: normal SD rats
Method: as §1, §2

[6] = tested on: osteoblast MC3T3-E1 Subclone 4 cells; assay: CyQUANT in vitro proliferation of osteoblast cells; type: cell-based; details: FIG. 1; Example 1 effect more pronounced than that of OGP
Method: (§3) The CyQUANT cell proliferation detection kit was used to determine the in vitro proliferation effect of the polypeptide of Example 1 on osteoblast MC3T3-E1 Subclone 4 and fibroblast NIH/3T3 cells. Osteogenic growth peptide (OGP) was used as a positive control in the experiment. The polypeptide of Example 1 and OGP were prepared to the following concentrations: 10^−8 mol/L, 10^−9 mol/L, 10^−10 mol/L, 10^−11 mol/L, 10^−12 mol/L, 10^−13 mol/L, 10^−14 mol/L, 10^−15 mol/L and 10^−16 mol/L. 100 μL of medium was discarded from each well of the cell plate to be tested, and 100 μL of 2×CyQuant detection reagent was added to each well. The plate was then placed in a 37° C., 5% CO2 incubator for 60 min. Fluorescence values were read in bottom-reading mode with excitation and emission wavelengths of 480/535 nm.
(§4) % relative to Control=(reading value of compound well−reading value of blank control well)/(reading value of base control well−reading value of blank control well)×100

[7] = tested on: fibroblast NIH/3T3 cells; assay: CyQUANT in vitro proliferation of fibroblast cells; type: cell-based; details: FIG. 1; comparable effective dose for Example 1 and OGP
Method: as §3, §4

[8] = 0.5 mg/kg i.v., 0 h (before administration)
[9] = 1.5 mg/kg i.v., 0 h (before administration)
[10] = 4.5 mg/kg i.v., 0 h (before administration)

CC(=O)N[C@H](CSSC[C@H](N)C(=O)O)C(=O)N[C@H](C)C(=O)N[C@H](CCCNC(=N)N)C(=O)N[C@H](CCCNC(=N)N)C(=O)N[C@H](CCCNC(=N)N)C(=O)N[C@H](C)C(=O)N[C@H](CCCNC(=N)N)C(N)=O [Etelcalcetide, etelcalcetide]
PTH change in plasma 4 h after administration ([1]; 2 weeks): −95.57 ± 0.28%
PTH change in plasma 4 h after administration ([1]; 4 weeks): −93.81 ± 0.59%
PTH change in plasma 4 h after administration ([1]; 6 weeks): −92.63 ± 0.77%
PTH change in plasma 4 h after administration ([1]; first administration): −92.03 ± 0.67%
Cortical bone porosity [2]: 4.13 ± 2.27%

CC(=O)N[C@H](CSSC[C@H](NC(=O)CNC(=O)CNC(=O)[C@@H](Cc1ccccc1)NC(=O)C(C)(C)NC(=O)[C@H](N)Cc1ccc(O)cc1)C(=O)O)C(=O)N[C@H](C)C(=O)N[C@H](CCCNC(=N)N)C(=O)N[C@H](CCCNC(=N)N)C(=O)N[C@H](CCCNC(=N)N)C(=O)N[C@H](C)C(=O)N[C@H](CCCNC(=N)N)C(N)=O [Example 1]
EC50 ([3]; Ca2+ concentration of 1.2 mM, read-out: EC50, agonistic activity on HEK293-CaSR cells): 84.7 µM
EC50 ([3]; in the absence of Ca2+, read-out: EC50, agonist activity on HEK293-CaSR cells): 980 µM

Example 2: Ac-D-Cys-D-Ala-D-Arg-D-Arg-D-Arg-D-Ala-D-Arg-NH2 linked by disulfide bond to H-D-Tyr-D-Arg-D-Phe-Gly-Gly-L-Cys-OH (CARRRAR; D-amino acids, Ac, NH2, disulfide-linked second peptide; MOD_RES (1)..(7) Cys, Ala and Arg are D-amino acids; MOD_RES (1)..(1) Cys is acetylated; MOD_RES (7)..(7) Arg is amidated; BINDING (1)..(1) Cys is linked ot Cys in SEQ ID NO 6 via disulfide bond)
blood calcium level after a single intravenous bolus injection [4, 8]: 2.42 ± 0.02 mmol/L
blood calcium level after a single intravenous bolus injection ([4]; 0.5 mg/kg i.v., 4 h): 2.05 ± 0.04 mmol/L
blood calcium level after a single intravenous bolus injection ([4]; 0.5 mg/kg i.v., 8 h): 2.20 ± 0.02 mmol/L
blood calcium level after a single intravenous bolus injection ([4]; 0.5 mg/kg i.v., 16 h): 2.27 ± 0.01 mmol/L
blood calcium level after a single intravenous bolus injection [4, 9]: 2.41 ± 0.06 mmol/L
blood calcium level after a single intravenous bolus injection ([4]; 1.5 mg/kg i.v., 4 h): 2.02 ± 0.06 mmol/L
blood calcium level after a single intravenous bolus injection ([4]; 1.5 mg/kg i.v., 8 h): 1.84 ± 0.04 mmol/L
blood calcium level after a single intravenous bolus injection ([4]; 1.5 mg/kg i.v., 16 h): 2.10 ± 0.03 mmol/L
blood calcium level after a single intravenous bolus injection [4, 10]: 2.45 ± 0.02 mmol/L
blood calcium level after a single intravenous bolus injection ([4]; 4.5 mg/kg i.v., 4 h): 1.79 ± 0.03 mmol/L
blood calcium level after a single intravenous bolus injection ([4]; 4.5 mg/kg i.v., 8 h): 1.53 ± 0.03 mmol/L
blood calcium level after a single intravenous bolus injection ([4]; 4.5 mg/kg i.v., 16 h): 1.64 ± 0.17 mmol/L
blood calcium levels compared with the concentration before administration (in words) ([4]; normal rats, single tail vein bolus injection, each administration group, P≤0.01): decreased significantly
time at which serum phosphorus level reached the highest ([5]; high-dose group (4.5 mg/kg)): 8 h
time at which serum phosphorus level reached the highest ([5]; low-dose group (0.5 mg/kg and 1.5 mg/kg)): 4 h
blood phosphorus level after a single intravenous bolus injection [5, 8]: 2.70 ± 0.06 mmol/L
blood phosphorus level after a single intravenous bolus injection ([5]; 0.5 mg/kg i.v., 4 h): 2.78 ± 0.14 mmol/L
blood phosphorus level after a single intravenous bolus injection ([5]; 0.5 mg/kg i.v., 8 h): 2.67 ± 0.06 mmol/L
blood phosphorus level after a single intravenous bolus injection ([5]; 0.5 mg/kg i.v., 16 h): 2.49 ± 0.08 mmol/L
blood phosphorus level after a single intravenous bolus injection [5, 9]: 2.65 ± 0.08 mmol/L
blood phosphorus level after a single intravenous bolus injection ([5]; 1.5 mg/kg i.v., 4 h): 3.04 ± 0.08 mmol/L
blood phosphorus level after a single intravenous bolus injection ([5]; 1.5 mg/kg i.v., 8 h): 3.05 ± 0.08 mmol/L
blood phosphorus level after a single intravenous bolus injection ([5]; 1.5 mg/kg i.v., 16 h): 2.47 ± 0.06 mmol/L
blood phosphorus level after a single intravenous bolus injection [5, 10]: 2.63 ± 0.02 mmol/L
blood phosphorus level after a single intravenous bolus injection ([5]; 4.5 mg/kg i.v., 4 h): 3.31 ± 0.08 mmol/L
blood phosphorus level after a single intravenous bolus injection ([5]; 4.5 mg/kg i.v., 8 h): 3.67 ± 0.1 mmol/L
blood phosphorus level after a single intravenous bolus injection ([5]; 4.5 mg/kg i.v., 16 h): 2.49 ± 0.06 mmol/L
effect on blood phosphorus concentration (in words) ([5]; normal rats, single tail vein bolus injection): increasing the blood phosphorus concentration

Osteogenic growth peptide [OGP]
concentration that significantly stimulated proliferation of osteoblast MC3T3-E1 Subclone 4 cells [6]: 10^−8 to 10^−16 M
concentration that significantly stimulates proliferation of fibroblast NIH3T3 cells (effective dose) [7]: 10^−8 M
